Source: paper PMC3883354 (Bioorganic & medicinal chemistry, 2013)

Molecular target: T1, human GVIA iPLA2 (Homo sapiens, UniProt O60733)
T1 sequence (O60733 1-806): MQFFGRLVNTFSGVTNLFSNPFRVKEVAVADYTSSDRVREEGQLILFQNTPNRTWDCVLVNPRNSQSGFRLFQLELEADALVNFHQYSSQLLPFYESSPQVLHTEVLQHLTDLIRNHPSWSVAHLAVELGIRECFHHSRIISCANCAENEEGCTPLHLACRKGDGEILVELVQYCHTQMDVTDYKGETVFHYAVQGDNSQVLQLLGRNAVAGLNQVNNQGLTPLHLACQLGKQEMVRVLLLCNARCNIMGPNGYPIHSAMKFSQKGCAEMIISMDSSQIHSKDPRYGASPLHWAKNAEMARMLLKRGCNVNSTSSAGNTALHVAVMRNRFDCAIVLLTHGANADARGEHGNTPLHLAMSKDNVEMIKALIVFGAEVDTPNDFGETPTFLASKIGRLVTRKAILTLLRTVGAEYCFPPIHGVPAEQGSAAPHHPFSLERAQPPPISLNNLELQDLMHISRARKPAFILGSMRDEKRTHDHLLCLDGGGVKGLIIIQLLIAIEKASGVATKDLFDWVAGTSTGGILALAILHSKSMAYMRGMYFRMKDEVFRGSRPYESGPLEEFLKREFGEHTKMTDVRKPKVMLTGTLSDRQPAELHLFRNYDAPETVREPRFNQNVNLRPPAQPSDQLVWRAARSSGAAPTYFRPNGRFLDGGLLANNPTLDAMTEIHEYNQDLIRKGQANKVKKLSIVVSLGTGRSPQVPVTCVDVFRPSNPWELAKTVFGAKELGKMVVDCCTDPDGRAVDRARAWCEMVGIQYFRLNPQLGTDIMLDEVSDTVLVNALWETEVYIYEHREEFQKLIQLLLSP
Test: mixed micelle-based modified Dole assay, GVIA iPLA2 inhibition
Type: biochemical
Settings: for fold weaker towards iPLA2 than FKGK11: compared with FKGK11

Row | SMILES | times weaker inhibitor towards GVIA iPLA2 than FKGK18 (compared with FKGK18) [times] | fold weaker towards iPLA2 than FKGK11
1 | O=C(CCCCc1cccc2ccccc12)C(F)(F)F [5a, 1,1,1-Trifluoro-6-(naphthalen-1-yl)hexan-2-one] | 9 | –
2 | O=C(CCCCc1ccc(-c2ccccc2)cc1)C(F)(F)F [5e, 6-(Biphenyl-4-yl)-1,1,1-trifluorohexan-2-one] | – | 13 fold
3 | O=C(CCCCc1ccc(-c2ccccc2)cc1)C(F)(F)C(F)(F)F [6e, 7-(Biphenyl-4-yl)-1,1,1,2,2-pentafluoroheptan-3-one] | – | ninefold weaker
